Measurements: patent US6800762B2, “Indolin derivaties as sun protection agents” (Ciba Specialty Chemicals Corporation, priority 1998, dated 2004)

How the values were obtained:
photostability = format: physicochemical; conditions: read-out: photostability t1/2 (converted)
[1] = UV absorption: molar extinction coefficient at λmax; format: physicochemical
Excerpt: ε=62081 in ethanol l/(mol/cm) at λmax=434 nm, elemental analysis for C24H32N2O2[%]:

half-life (photostability) | ε ([1]; in ethanol at λmax) | λmax ([1]; in ethanol) | λmax ([1]; in dioxane) | ε ([1]; in dioxane at λmax) | SMILES
208 h | 34520 l/(mol/cm) | – | – | – | CN1/C(=C\C=O)C(C)(C)c2ccccc21 [Example 1, 2-(1,3,3-trimethyl-indolin-2-ylene) acetaldehyde]
– | 62081 l/(mol/cm) | 434 nm | – | – | CCCCC(CC)COC(=O)/C(C#N)=C/C=C1\N(C)c2ccccc2C1(C)C (stereo not drawn) [Example 2]
– | – | – | 377 nm | 29427 l/(mol/cm) | CN1/C(=C/C(=O)c2ccccc2)C(C)(C)c2ccccc21 [Example 3]
